Assays:
tmACs [1] = test: cAMP forming activity inside cells stimulated with forskolin; type: cell-based; settings: read-out: in vivo IC50 tmAC (FSK)
INS-1E cells [2] = test: transferrin recycling in INS-1E cells; type: cell-based; settings: 30 minutes, KH7 30 μM
Procedure: (§1) Briefly, cells (passage 140-150) were plated at 2.5×10^5 cells/well in a 24 well plate and permitted to recover for two days. Cells were glucose starved by incubation for 1 hour in the presence of 2.5 mM glucose KRB medium supplemented with 2 mM sodium bicarbonate, 10 mM Hepes, and 0.1% BSA. After washing, cells were incubated in KRB with either 2.5 mM or 16 mM glucose in the presence of either vehicle control (DMSO or MeOH) or indicated drug. After the indicated time, removed media was cleared of cell debris and secreted insulin was measured by Insulin ELISA kit (Linco Research, St. Charles, Mo., or ALPCO, Windham, N.H.). If cAMP was to be concomitantly measured, cells were pre-treated with IBMX for the final 10 minutes of the glucose starvation and IBMX was included in all subsequent incubations. For the washout experiment, subsequent to initial insulin determination, cells treated with KH7 were placed in fresh KRB (2.5 mM glucose) for an additional hour and insulin release was measured as above in the absence of any added drug. For transferrin recycling, loading of cells with I^125 transferrin was performed during hour incubation in 2.5 mM glucose KRB.

tmACs [3] = test: adenylyl cyclase activity in forskolin stimulated INS-1E cell lysate; settings: forskolin (10 μM) stimulated INS-1E
Procedure: In vitro adenylyl cyclase assays were performed on purified recombinant human sACt protein as previously described in Litvin et al., “Kinetic Properties of “Soluble” Adenylyl Cyclase.

Candida albicans = test: CO2 induced differentiation of Candida albicans into the filamentous stage; type: cell-based; settings: similar dose dependency as on JR3
Excerpt: . FIG. 17A illustrates the bicarbonate dependence of the JR3 fragment; […];

[4] = target: T1, purified solubilized version of Type VII tmAC (sol.AC7) (Homo sapiens, UniProt P51828); test: in vitro cyclase activity of purified solubilized Type VII tmAC; type: biochemical; settings: read-out: in vitro IC50 pure sol.AC7
T1 construct: a mixture of purified catalytic domains, C1 and C2, from Type VII tmAC; made in house
T1 sequence (P51828 279-406 limits assumed): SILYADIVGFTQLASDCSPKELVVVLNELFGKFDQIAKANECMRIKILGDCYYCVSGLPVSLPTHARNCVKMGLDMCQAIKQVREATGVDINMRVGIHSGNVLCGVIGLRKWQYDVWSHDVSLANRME
T1 sequence (P51828 879-1023 limits assumed): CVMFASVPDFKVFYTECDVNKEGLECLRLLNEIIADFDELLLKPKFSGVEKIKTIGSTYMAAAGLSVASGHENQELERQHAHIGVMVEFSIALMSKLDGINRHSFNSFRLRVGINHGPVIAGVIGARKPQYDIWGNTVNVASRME

Plasmodium falciparum = Plasmodium falciparum viability, luciferase assay; type: cell-based; settings: 24 hours
Procedure: . Plasmodium cultures were incubated in the indicated concentrations of KH7 or KH7.15 for 24 hours and viability assessed by luciferase assay (FIG. 16A). […].
Therefore, the effect of sAC inhibitors on P. falciparum viability was tested. […].

PfAC = test: adenylyl cyclase activity in whole cell extract of isolated parasites; type: biochemical, Plasmodium falciparum; settings: MnCl2 and ATP
[5] = tested on: CREB phosphorylation in isolated nuclei; test: CREB phosphorylation in isolated HeLa nuclei (P2), Western analysis; type: biochemical; settings: 40 mM bicarbonate, 50 μM KH7
Procedure: The resuspended pellet and 60% OptiPrep iodixanol were mixed (30% OptiPrep final) and centrifuged at 10,000 g for 20 min. The supernatant was removed and the nuclei-enriched pellet (P2) was resuspended in TM-2 buffer without detergent.
Reactions were stopped by the addition of 20 μl of SDS sample buffer (CREB phosphorylation) or by being placed into a 100° C. heat block for 3 min (adenylyl cyclase).
For whole cell and isolated nuclei CREB phosphorylation assays, equal cell or nuclear equivalents were separated under reducing conditions using a 10% SDS-PAGE, transferred to a PVDF membrane, and probed for CREB (rabbit polyclonal antiserum; Chemicon, Temecula, Calif.) and phosphorylated CREB (rabbit polyclonal antiserum; Upstate Biotechnology, Temecula, Calif.). HRP-conjugated secondary antibodies were used, and bands were visualized using ECL. Image analysis software (model Fluorchem 8800; Alpha Innotech, San Leandro, Calif.) was used to quantitate Western results. Intensities of phospho-CREB bands were normalized to total CREB.

INS-1E cells [6] = test: insulin release in INS-1E cells; type: cell-based; settings: for effect on PMA induced insulin release: PMA 300 nM, 2.5 mM glucose, KH7 30 μM
Procedure: as §1

primary mouse islets = test: insulin release from isolated mouse islets; type: cell-based; settings: 16.7 mM glucose, 30 minutes, 30 μM KH7
Procedure: After several washes with Hank's Balanced Salt Solution, islets were hand-picked and 15-20 islets were distributed into each well of a 12 well plate to adhere overnight in RPMI-1640 media supplemented with 10 mM HEPES, 5.6 mM glucose, 10% FBS, 2 mM L-glutamine, 1 mM sodium pyruvate, and antibiotics.
Insulin release from isolated islets was performed in 12 well plates. Islets were preincubated in KRB (2.8 mM glucose) for 1 hour followed by incubation for 30 minutes in 2.8 mM glucose KRB in the presence of drug. The same wells were then incubated for an additional 30 minutes in 16.7 mM glucose KRB in the presence of the same drugs. Media was removed, cleared of cells, and insulin was measured.

[7] = target: T2, Type II tmAC (tmAC in extracts) (Homo sapiens, UniProt Q08462); test: in vitro cyclase activity in extracts of cells overexpressing Type II tmAC; type: biochemical; settings: cell printing μM
T2 construct: expressed in transfected cells
T2 sequence (Q08462 whole entry): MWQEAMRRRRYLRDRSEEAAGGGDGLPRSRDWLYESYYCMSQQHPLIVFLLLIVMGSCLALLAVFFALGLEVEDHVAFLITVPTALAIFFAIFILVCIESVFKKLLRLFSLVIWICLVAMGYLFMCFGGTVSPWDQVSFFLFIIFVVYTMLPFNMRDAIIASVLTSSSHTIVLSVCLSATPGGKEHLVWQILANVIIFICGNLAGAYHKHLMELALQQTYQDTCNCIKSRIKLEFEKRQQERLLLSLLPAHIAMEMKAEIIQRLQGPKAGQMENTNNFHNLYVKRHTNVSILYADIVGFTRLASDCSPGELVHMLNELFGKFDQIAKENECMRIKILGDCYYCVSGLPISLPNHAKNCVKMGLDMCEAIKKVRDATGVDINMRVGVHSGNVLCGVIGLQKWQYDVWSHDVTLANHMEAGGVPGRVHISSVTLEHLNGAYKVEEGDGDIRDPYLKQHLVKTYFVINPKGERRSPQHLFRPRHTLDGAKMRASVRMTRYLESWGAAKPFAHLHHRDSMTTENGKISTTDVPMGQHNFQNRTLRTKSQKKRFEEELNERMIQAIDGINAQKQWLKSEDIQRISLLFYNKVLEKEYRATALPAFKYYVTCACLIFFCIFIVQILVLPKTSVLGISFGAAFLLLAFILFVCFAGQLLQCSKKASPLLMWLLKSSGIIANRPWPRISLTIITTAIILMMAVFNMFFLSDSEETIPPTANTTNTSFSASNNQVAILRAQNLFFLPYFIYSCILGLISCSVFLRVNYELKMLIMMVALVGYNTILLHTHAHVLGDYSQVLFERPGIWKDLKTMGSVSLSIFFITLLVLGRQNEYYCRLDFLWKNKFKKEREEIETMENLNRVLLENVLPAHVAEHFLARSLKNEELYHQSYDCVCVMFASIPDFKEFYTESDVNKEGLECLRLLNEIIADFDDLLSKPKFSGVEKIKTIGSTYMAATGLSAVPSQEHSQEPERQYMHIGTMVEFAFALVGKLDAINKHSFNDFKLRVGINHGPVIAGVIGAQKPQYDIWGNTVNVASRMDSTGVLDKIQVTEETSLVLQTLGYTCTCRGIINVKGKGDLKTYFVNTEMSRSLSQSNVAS

[8] = tested on: sAC overexpressing INS-1E cells; test: insulin secretion in sAC overexpressing INS-1E cells (SF2); type: cell-based; settings: 30 μM KH7, 15 minutes
Excerpt: FIGS. 14A-C illustrate that sAC-generated cAMP, distinct from tmAC-generated cAMP, is sufficient to elicit insulin secretion. […] Shown is a representative assay repeated at least five times; values indicate duplicate determinations with standard deviations. […] Shown is a representative assay repeated at least five times; values indicate duplicate determinations with standard deviations. Insert is a Western blot indicating the levels of sAC protein in INS-1E, SF2, and SF5 cells. […] Values represent mean±SEM (n=3). ANOVA analysis was performed with asterisks indicating statistically significant differences. ***=p<0.001. […]
Briefly, cells (passage 140-150) were plated at 2.5×10^5 cells/well in a 24 well plate and permitted to recover for two days. […] After the indicated time, removed media was cleared of cell debris and secreted insulin was measured by Insulin ELISA kit (Linco Research, St. Charles, Mo., or ALPCO, Windham, N.H.). If cAMP was to be concomitantly measured, cells were pre-treated with IBMX for the final 10 minutes of the glucose starvation and IBMX was included in all subsequent incubations. For the washout experiment, subsequent to initial insulin determination, cells treated with KH7 were placed in fresh KRB (2.5 mM glucose) for an additional hour and insulin release was measured as above in the absence of any added drug. […]

cAMP in INS-1E cells = test: intracellular cAMP in INS-1E cells; type: cell-based
Procedure: as §1

[9] = toxicity observation and post-mortem analysis in mice; type: in vivo, mouse; settings: single injection
[10] = 16 mM glucose, 30 μM KH7, 30 μM KH7.15, 50 μM 2-hydroxyestradiol, 50 μM 2′5′ddAdo

Question: Which IC50 (tmACs [1]) does the source give for CC(Sc1nc2ccccc2[nH]1)C(=O)N/N=C/c1cc(Br)ccc1O (stereo not shown) [KH7] here?
Answer: Its IC50 is over 500 µM.

Question: What about the “effect on transferrin recycling” value (INS-1E cells [2]) of the same molecule?
Answer: Its value is “unaffected”.

Question: And the “effect on transferrin recycling” value (INS-1E cells [2]; listed as K17)?
Answer: The value was “does not affect”.

Question: And the “effect on tmACs” value (tmACs [3])?
Answer: Its value is “inert towards tmACs”.

Question: What about the “effect on CO2 induced differentiation into the filamentous, infectious stage” value (Candida albicans) of the same molecule?
Answer: Its value is “dose dependently inhibited”.

Question: What about the IC50 [4] of the same molecule?
Answer: The IC50 was over 55 µM.

Question: What about the “effect on infectious growth in red blood cells” value (Plasmodium falciparum) of the same molecule?
Answer: The value was “rapidly (in a single generation) and potently affected”.

Question: And the “dose response for inhibiting PfAC activity versus killing parasites” value (PfAC)?
Answer: Its value is “equal dose responses at killing parasites and at inhibiting PfAC activity”.

Question: And the “effect on bicarbonate-induced CREB phosphorylation” value [5]?
Answer: The value was “effective in preventing bicarbonate-induced CREB phosphorylation”.

Question: And the “rescue of KH7 inhibition of GSIS by cAMP analog” value (INS-1E cells [6]; 50 μM KH7, 1 mM 8-Br-SpcAMP)?
Answer: The value was “rescued by addition of a membrane-permeable cAMP analog”.

Question: And the “effect on glucose-stimulated insulin secretion (GSIS)” value (INS-1E cells [6]; [10])?
Answer: The value was “blocked all insulin release induced by high glucose”.

Question: What about the cellular toxicity (INS-1E cells [6]; INS-1E cells) of the same molecule?
Answer: The cellular toxicity was “not due to cellular toxicity”.

Question: What about the IC50 (INS-1E cells [6]; INS-1E, 0.5 h, 16 mM glucose, 30 minutes, read-out: IC50 for inhibition of glucose-stimulated insulin secretion (GSIS)) of the same molecule?
Answer: Its IC50 is about 5 µM.

Question: What about the “effect on PMA induced insulin release” value (INS-1E cells [6]; 30 minutes) of the same molecule?
Answer: Its value is “unaffected”.

Question: And the “effect on PMA induced insulin release” value (INS-1E cells [6]; 30 minutes, listed as K17)?
Answer: Its value is “does not affect”.

Question: What about the “insulin release over time after addition of high glucose” value (INS-1E cells [6]; in the presence of KH7) of the same molecule?
Answer: The value was “no significant insulin release was observed up to 45 minutes”.

Question: And the “GSIS after drug washout” value (INS-1E cells [6]; sixty minutes following removal of drug)?
Answer: Its value is “normal GSIS was restored”.

Question: What about the “effect on insulin release induced by high glucose in islets” value (primary mouse islets) of the same molecule?
Answer: The value was “inhibited insulin release induced by high glucose”.

Question: What about the IC50 [7] of the same molecule?
Answer: The IC50 was over 100 µM.

Question: And the “effect on sAC overexpression-induced increase in insulin release” value [8]?
Answer: The value was “inhibited”.

Question: And the “IC50 for blocking glucose-induced cAMP, compared with sAC inhibition” value (cAMP in INS-1E cells)?
Answer: Its value is “matched its dose response of sAC inhibition”.

Question: What about the “effect on cAMP induced by high glucose” value (cAMP in INS-1E cells; [10]) of the same molecule?
Answer: Its value is “blocked the cAMP induced by the presence of high glucose”.

Question: And the “behavior or stressful responses to injection” value [9]?
Answer: The value was “did not elicit any behavior or stressful responses inconsistent with a simple saline injection”.

Question: What about the toxicity to mice [9] of the same molecule?
Answer: Its toxicity to mice is “did not appear to be toxic”.

Question: And the “anatomical, histological, and blood post-mortem analysis” value ([9]; within 48 hours after drug treatment)?
Answer: Its value is “no significant toxicology or histological pathology”.
